Test results reported in patent publication US20260315452A1, “PROTEASE INHIBITORS AND USES THEREOF” (priority 2023, published 2026).

Target: SARS-CoV-2 3CLpro (Severe acute respiratory syndrome coronavirus 2, UniProt P0DTD1)
Assay: biochemical
Details: inhibition of SARS-CoV-2 3CLpro; 15 nM 3CLpro, 25 μM fluorogenic substrate, 37° C.; read-out: Inhibitory Activity (IC50)

Compound | IC50 [nM]
CC(C)C(Nc1c(-c2ncco2)cc(Br)cc1[N+](=O)[O-])C1CN(C(=O)c2cncc3ccccc23)C1 (stereo not drawn) [Compound 65, (3-(1-((4-bromo-2-nitro-6-(oxazol-2-yl)phenyl)amino)-2-methylpropyl)azetidin-1-yl)(isoquinolin-4-yl)methanone] | 1000 to 10000
CN(C)C(=O)c1cc(Br)cc([N+](=O)[O-])c1N[C@H]1CN(C(=O)c2cncc3ccccc23)CC1(F)F [Compound 161, (S)-5-bromo-2-((4,4-difluoro-1-(isoquinoline-4-carbonyl)pyrrolidin-3-yl)amino)-N, N-dimethyl-3-nitrobenzamide] | < 100
CNC(=O)c1cc(Br)cc([N+](=O)[O-])c1N[C@H]1CN(C(=O)c2cncc3ccccc23)CC[C@H]1C [Compound 141, 5-bromo-2-(((3R, 4R)-1-(isoquinoline-4-carbonyl)-4-methylpiperidin-3-yl)amino)-N-methyl-3-nitrobenzamide] | 100 to 1000
CNC(=O)c1cc(Br)cc([N+](=O)[O-])c1N[C@@H]1CCCC[C@@H]1NC(=O)c1cncc(OC)c1 [Compound 4, N-((1S, 2R)-2-((4-bromo-2-(methylcarbamoyl)-6-nitrophenyl)amino)cyclohexyl)-5-methoxynicotinamide] | 1000 to 10000
CNC(=O)c1cc(Br)cc([N+](=O)[O-])c1N[C@@H]1CCCC[C@@H]1NC(=O)c1cncc(CN)c1 [Compound 6, 5-(aminomethyl)-N-((1S,2R)-2-((4-bromo-2-(methylcarbamoyl)-6-nitrophenyl)amino)cyclohexyl) nicotinamide] | ≥ 10000
CNC(=O)c1cc(Cl)cc([N+](=O)[O-])c1N[C@H]1CN(C(=O)c2cncc3cccc(O)c23)CCC1(F)F [Compound 174, (S)-5-chloro-2-((4,4-difluoro-1-(5-hydroxyisoquinoline-4-carbonyl)piperidin-3-yl)amino)-N-methyl-3-nitrobenzamide] | < 100
CNC(=O)c1cc(Br)cc([N+](=O)[O-])c1N[C@H]1CN(C(=O)c2cccnc2C#N)CCC1(F)F [Compound 114, (S)-5-bromo-2-((1-(2-cyanonicotinoyl)-4,4-difluoropiperidin-3-yl)amino)-N-methyl-3-nitrobenzamide] | 1000 to 10000
CNC(=O)c1cc(Br)cc([N+](=O)[O-])c1N[C@H]1CN(C(=O)c2cncc3ccccc23)C[C@H]1F [Compound 166, 5-bromo-2-[[(3S,4R)-4-fluoro-1-(isoquinoline-4-carbonyl)pyrrolidin-3-yl]amino]-N-methyl-3-nitro-benzamide] | < 100
O=C(NCC(F)(F)F)c1cc(Br)cc([N+](=O)[O-])c1N[C@H]1CN(C(=O)c2cncc3ccccc23)CCC1(F)F [Compound 148, (S)-5-bromo-2-((4,4-difluoro-1-(isoquinoline-4-carbonyl)piperidin-3-yl)amino)-3-nitro-N-(2,2,2-trifluoroethyl) benzamide] | < 100
COc1cncc(C(=O)N2CCC3(CCN(c4c(C(=O)NC5CC(F)(F)C5)cc(Br)cc4[N+](=O)[O-])C3)C2)c1 (stereo not drawn) [Compound 23, 5-bromo-N-(3,3-difluorocyclobutyl)-2-(7-(5-methoxynicotinoyl)-2,7-diazaspiro[4.4]nonan-2-yl)-3-nitrobenzamide] | 1000 to 10000
O=C(c1cc(Br)cc(C(F)(F)F)c1N[C@H]1CN(C(=O)c2cncc3ccccc23)CCC1(F)F)N1CC(O)C1 [Compound 173, (S)-(5-bromo-2-((4,4-difluoro-1-(isoquinoline-4-carbonyl)piperidin-3-yl)amino)-3-(trifluoromethyl)phenyl)(3-hydroxyazetidin-1-yl)methanone] | < 100
COC(=O)c1cc(Br)cc([N+](=O)[O-])c1N[C@@H]1CCCC[C@@H]1NC(=O)c1cncc2ccccc12 [Compound 51, methyl 5-bromo-2-(((1R, 2S)-2-(isoquinoline-4-carboxamido)cyclohexyl)amino)-3-nitrobenzoate] | 100 to 1000
